{
  "source": "the supplement of paper PMC10307832",
  "test_in_all_cases": "relative viability (nuclei count vs DMSO), 5 days (fraction); higher = more cells survive",
  "key": {"[1]": {"compound": "CC1=C(C(=NN1)C)CC2=C(C3=C(S2)N(C(=O)N(C3=O)C)CC(C)C)C(=O)N4C[C@@H](CO4)O + CS(=O)(=O)CCNCc1ccc(-c2ccc3ncnc(Nc4ccc(OCc5cccc(F)c5)c(Cl)c4)c3c2)o1 [Lapatinib] (partner 2 µM)", "in_short": "(§1)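 Dosing by pin tool came one day after lung cancer cell lines were seeded in 1536-well plates, using either one drug or a fixed anchor-drug dose plus five library-drug doses (not always all listed) in √10 steps. After 5 days, nuclei were counted on 4× images. Relative viability is treated-well nuclei count divided by vehicle-well nuclei count, and values are medians of duplicate plates.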"}, "[2]": {"compound": "CC1=C(C(=NN1)C)CC2=C(C3=C(S2)N(C(=O)N(C3=O)C)CC(C)C)C(=O)N4C[C@@H](CO4)O + Nc1nc2[nH]cc(CCc3ccc(C(=O)N[C@@H](CCC(=O)O)C(=O)O)cc3)c2c(=O)[nH]1 [Pemetrexed] (partner 0.2 µM)", "in_short": "as §1"}, "[3]": {"compound": "CC1=C(C(=NN1)C)CC2=C(C3=C(S2)N(C(=O)N(C3=O)C)CC(C)C)C(=O)N4C[C@@H](CO4)O + O=C(CCCCCCC(=O)Nc1ccccc1)NO [Vorinostat] (partner 1 µM)", "in_short": "as §1"}, "[4]": {"compound": "CC1=C(C(=NN1)C)CC2=C(C3=C(S2)N(C(=O)N(C3=O)C)CC(C)C)C(=O)N4C[C@@H](CO4)O + COc1cccc2cc(-c3nc([C@H]4CC[C@H](C(=O)O)CC4)n4ncnc(N)c34)[nH]c12 [OSI-027] (partner 0.5 µM)", "in_short": "as §1"}},
  "data": [
    {"cell line": "UMC-11", "values": [
      {"measurement": "relative viability", "setting": "[1]; first compound 0.0025 µM", "value": 1.12},
      {"measurement": "relative viability", "setting": "[1]; first compound 0.007906 µM", "value": 1.03},
      {"measurement": "relative viability", "setting": "[1]; first compound 0.025 µM", "value": 0.957},
      {"measurement": "relative viability", "setting": "[1]; first compound 0.07906 µM", "value": 1.01},
      {"measurement": "relative viability", "setting": "[1]; first compound 0.25 µM", "value": 1.05},
      {"measurement": "relative viability", "setting": "[2]; first compound 0.0025 µM", "value": 0.791},
      {"measurement": "relative viability", "setting": "[2]; first compound 0.007906 µM", "value": 0.86},
      {"measurement": "relative viability", "setting": "[2]; first compound 0.025 µM", "value": 0.779},
      {"measurement": "relative viability", "setting": "[2]; first compound 0.07906 µM", "value": 0.761},
      {"measurement": "relative viability", "setting": "[2]; first compound 0.25 µM", "value": 0.789},
      {"measurement": "relative viability", "setting": "[3]; first compound 0.0025 µM", "value": 0.41},
      {"measurement": "relative viability", "setting": "[3]; first compound 0.007906 µM", "value": 0.429},
      {"measurement": "relative viability", "setting": "[3]; first compound 0.025 µM", "value": 0.396},
      {"measurement": "relative viability", "setting": "[3]; first compound 0.07906 µM", "value": 0.464},
      {"measurement": "relative viability", "setting": "[3]; first compound 0.25 µM", "value": 0.424},
      {"measurement": "relative viability", "setting": "[4]; first compound 0.0025 µM", "value": 0.494},
      {"measurement": "relative viability", "setting": "[4]; first compound 0.007906 µM", "value": 0.473},
      {"measurement": "relative viability", "setting": "[4]; first compound 0.025 µM", "value": 0.468},
      {"measurement": "relative viability", "setting": "[4]; first compound 0.07906 µM", "value": 0.549},
      {"measurement": "relative viability", "setting": "[4]; first compound 0.25 µM", "value": 0.572}
    ]}
  ]
}
